{"source": "patent EP4707392A1", "about": "“DOUBLE-STRANDED OLIGONUCLEOTIDE, CONJUGATE THEREOF, AND USE THEREOF” (priority 2023, dated 2024)"}
{"system": "coagulation factor XI (Factor XI, FXI) mRNA", "experiment": "In vitro inhibitory activity of siRNA conjugates modified with TOM against FXI mRNA, free uptake by mouse primary hepatocytes (Example 6)", "format": "cell-based", "settings": "not given", "experimental": "The inhibitory activities of the siRNA conjugates modified with TOM at different sites of an antisense strand against a target gene FXI in mouse primary hepatocytes were evaluated by the same experimental method as that in Example 4. Differences lie in that the siRNA conjugates modified with TOM at different sites of an antisense strand were used in the present example to replace the siRNA conjugates used in Example 4, and that target gene FXI detection primers listed in Table 13 were used in the present example to replace target gene detection primers used in Example 4. Relative quantitative calculation was performed for the target gene mRNA in various test groups by the preceding ΔΔCt method."}
{"substance": "RZ594019: siRNA conjugate, SEQ ID NOs 315/316 (chain 1 GUACGUGGACUGGAUUCUG; chain 2 CAGAATCCAGTCCACGTACTT; siRNA conjugate, conjugate and pattern not given here)", "in vitro activity compared with the reference sequence (RZ594001) without TOM modification": "conducive to enhancing in vitro activity"}
{"substance": "RZ594008: siRNA conjugate, SEQ ID NOs 293/294 (chain 1 GUACGUGGACUGGAUUCUG; chain 2 CAGAATCCAGTCCACGTACTT; siRNA conjugate, conjugate and pattern not given here)", "in vitro activity compared with the reference sequence (RZ594001) without TOM modification": "significantly weakened the in vitro activity"}
{"substance": "RZ594009: siRNA conjugate, SEQ ID NOs 295/296 (chain 1 GUACGUGGACUGGAUUCUG; chain 2 CAGAATCCAGTCCACGTACTT; siRNA conjugate, conjugate and pattern not given here)", "in vitro activity compared with the reference sequence (RZ594001) without TOM modification": "significantly weakened the in vitro activity"}
{"substance": "RZ594040: siRNA conjugate, SEQ ID NOs 367/368 (chain 1 GUACGUGGACUGGAUUCUG; chain 2 CAGAATCCAGTCCACGTACTT; siRNA conjugate, conjugate and pattern not given here)", "in vitro activity compared with the reference sequence (RZ594001) without TOM modification": "conducive to enhancing in vitro activity"}
{"substance": "RZ594025: siRNA conjugate, SEQ ID NOs 327/328 (chain 1 GUACGUGGACUGGAUUCUG; chain 2 CAGAATCCAGTCCACGTACTT; siRNA conjugate, conjugate and pattern not given here)", "in vitro activity compared with the reference sequence (RZ594001) without TOM modification": "conducive to enhancing in vitro activity"}
{"substance": "RZ594012: siRNA conjugate, SEQ ID NOs 301/302 (chain 1 GUACGUGGACUGGAUUCUG; chain 2 CAGAATCCAGTCCACGTACTT; siRNA conjugate, conjugate and pattern not given here)", "in vitro activity compared with the reference sequence (RZ594001) without TOM modification": "conducive to enhancing in vitro activity"}
{"substance": "RZ594024: siRNA conjugate, SEQ ID NOs 325/326 (chain 1 GUACGUGGACUGGAUUCUG; chain 2 CAGAATCCAGTCCACGTACTT; siRNA conjugate, conjugate and pattern not given here)", "in vitro activity compared with the reference sequence (RZ594001) without TOM modification": "conducive to enhancing in vitro activity"}
{"substance": "RZ594006: siRNA conjugate, SEQ ID NOs 345/346 (chain 1 GUACGUGGACUGGAUUCUG; chain 2 CAGAATCCAGTCCACGTACTT; siRNA conjugate, conjugate and pattern not given here)", "in vitro activity compared with the reference sequence (RZ594001) without TOM modification": "conducive to enhancing in vitro activity"}
{"substance": "RZ594018: siRNA conjugate, SEQ ID NOs 313/314 (chain 1 GUACGUGGACUGGAUUCUG; chain 2 CAGAATCCAGTCCACGTACTT; siRNA conjugate, conjugate and pattern not given here)", "in vitro activity compared with the reference sequence (RZ594001) without TOM modification": "conducive to enhancing in vitro activity"}
{"substance": "RZ594005: siRNA conjugate, SEQ ID NOs 343/344 (chain 1 GUACGUGGACUGGAUUCUG; chain 2 CAGAATCCAGTCCACGTACTT; siRNA conjugate, conjugate and pattern not given here)", "in vitro activity compared with the reference sequence (RZ594001) without TOM modification": "conducive to enhancing in vitro activity"}
{"substance": "RZ594016: siRNA conjugate, SEQ ID NOs 309/310 (chain 1 GUACGUGGACUGGAUUCUG; chain 2 CAGAATCCAGTCCACGTACTT; siRNA conjugate, conjugate and pattern not given here)", "in vitro activity compared with the reference sequence (RZ594001) without TOM modification": "significantly weakened the in vitro activity"}
{"substance": "RZ594030: siRNA conjugate, SEQ ID NOs 347/348 (chain 1 GUACGUGGACUGGAUUCUG; chain 2 CAGAATCCAGTCCACGTACTT; siRNA conjugate, conjugate and pattern not given here)", "in vitro activity compared with the reference sequence (RZ594001) without TOM modification": "conducive to enhancing in vitro activity"}
{"substance": "RZ594035: siRNA conjugate, SEQ ID NOs 357/358 (chain 1 GUACGUGGACUGGAUUCUG; chain 2 CAGAATCCAGTCCACGTACTT; siRNA conjugate, conjugate and pattern not given here)", "in vitro activity compared with the reference sequence (RZ594001) without TOM modification": "conducive to enhancing in vitro activity"}
{"substance": "RZ594041: siRNA conjugate, SEQ ID NOs 369/370 (chain 1 GUACGUGGACUGGAUUCUG; chain 2 CAGAATCCAGTCCACGTACTT; siRNA conjugate, conjugate and pattern not given here)", "in vitro activity compared with the reference sequence (RZ594001) without TOM modification": "conducive to enhancing in vitro activity"}
{"substance": "RZ594015: siRNA conjugate, SEQ ID NOs 307/308 (chain 1 GUACGUGGACUGGAUUCUG; chain 2 CAGAATCCAGTCCACGTACTT; siRNA conjugate, conjugate and pattern not given here)", "in vitro activity compared with the reference sequence (RZ594001) without TOM modification": "significantly weakened the in vitro activity"}
{"substance": "RZ594004: siRNA conjugate, SEQ ID NOs 341/342 (chain 1 GUACGUGGACUGGAUUCUG; chain 2 CAGAATCCAGTCCACGTACTT; siRNA conjugate, conjugate and pattern not given here)", "in vitro activity compared with the reference sequence (RZ594001) without TOM modification": "conducive to enhancing in vitro activity"}
{"substance": "RZ594013: siRNA conjugate, SEQ ID NOs 303/304 (chain 1 GUACGUGGACUGGAUUCUG; chain 2 CAGAATCCAGTCCACGTACTT; siRNA conjugate, conjugate and pattern not given here)", "in vitro activity compared with the reference sequence (RZ594001) without TOM modification": "significantly weakened the in vitro activity"}
{"substance": "RZ594011: siRNA conjugate, SEQ ID NOs 299/300 (chain 1 GUACGUGGACUGGAUUCUG; chain 2 CAGAATCCAGTCCACGTACTT; siRNA conjugate, conjugate and pattern not given here)", "in vitro activity compared with the reference sequence (RZ594001) without TOM modification": "conducive to enhancing in vitro activity"}
{"substance": "RZ594014: siRNA conjugate, SEQ ID NOs 305/306 (chain 1 GUACGUGGACUGGAUUCUG; chain 2 CAGAATCCAGTCCACGTACTT; siRNA conjugate, conjugate and pattern not given here)", "in vitro activity compared with the reference sequence (RZ594001) without TOM modification": "significantly weakened the in vitro activity"}
{"system": "CC3 mRNA", "experiment": "Inhibitory activity of siRNAs modified with MOE at different sites against CC3 mRNA in HepG2 cells (Example 8)", "format": "cell-based, human", "settings": "MOE at a single site", "experimental": "In vitro activities of siRNA compounds, such as RX502165 modified with MOE at different sites of a sense strand and RX502172 modified with MOE at different sites of an antisense strand, and a reference compound RX502001 without MOE modification on HepG2 cells were evaluated using the same experimental method as that in Example 2. A difference lies in that the siRNA compounds modified with MOE at different sites of the sense and antisense strands were used in the present example to replace the siRNA compounds used in Example 2. Relative quantitative calculation was performed for the target gene mRNA in various test groups by the preceding ΔΔCt method."}
{"substance": "RZ594011: siRNA conjugate, SEQ ID NOs 299/300 (chain 1 GUACGUGGACUGGAUUCUG; chain 2 CAGAATCCAGTCCACGTACTT; siRNA conjugate, conjugate and pattern not given here)", "in vitro activity compared with the reference sequence (RX502001) without MOE modification": "conducive to elevating the in vitro activity"}
